Test results published in US10159738B2, “Organic-inorganic hybrid solid having a modified outer surface” (CENTRE NATIONAL DE LA RECHERCHE SCIENTIFIQUE-CNRS, priority 2012, dated 2018).

How the values were obtained:
[1] = COOH groups; cited from earlier work
[2] = tested on: J774 cell line; experiment: Penetration in the J774 cell line (CLSM, ATP-BODIPY label); assay type: cell-based, murine; conditions: 50 μg/ml, 15 min to 24 h
Method: For this analysis the MIL-100s were labeled with a fluorophore: adenosine 5′-triphosphate BODIPY-FL (ATP-BODIPY, adenosine 5′-triphosphate, BODIPY® FL, Invitrogen). 1.25 mg of MIL-100 was incubated with 500 μL of an aqueous solution of ATP-BODIPY 10 nmol/ml, for 1 h, with stirring in the dark at room temperature. At the end of incubation, the nanoparticles were recovered by centrifugation at 5600×g for 10 min, and the supernatant was analyzed by spectrofluorimetry in order to quantify the level of absorption of the fluorophore. The nanoparticles were then incubated in 500 μl of water (unmodified sample) or of an aqueous solution of βCDP 1.25 mg/ml, for 1 h with stirring, at room temperature, in the dark. At the end of incubation, the nanoparticles were recovered by centrifugation at 5600×g for 10 min and resuspended in RMPI 10% FBS (fetal bovine serum) to a final concentration of 50 μg/ml. The cells of the J774 line had been cultured beforehand in 24-well plates (5×10^4 cells per well) on a sterile glass cover slip.
After 24 h of incubation in a humidified incubator at 37° C., the culture medium was replaced with 1 ml of the solutions of nanoparticles loaded with ATP-BODIPY (unmodified or surface-modified), or with free ATP-BODIPY. After various incubation times (15 min, 1 h, 4 h, 24 h), the culture medium was aspirated and the cells were fixed.

Compound | pKa [1] | internalization in the cells [2]
O=C(O)c1cc(C(=O)O)cc(C(=O)O)c1 [trimesic acid, 1,3,5-benzenetricarboxylic acid] | 3.4 | –
adenosine 5′-triphosphate, BODIPY® FL [ATP-BODIPY] | – | no fluorescence was observed in the cells
